Values of other authors, collected in US8309543B2 (priority 2003, dated 2012).

Assays:
[1] = in vivo
[2] = target: NaV1.3 (Homo sapiens, UniProt Q9NY46); conditions: read-out: TTX IC50
[3] = target: NaV1.8 (Homo sapiens, UniProt Q9Y5Y9); conditions: read-out: TTX IC50
Chain of NaV1.8 (Q9Y5Y9 whole entry, looked up): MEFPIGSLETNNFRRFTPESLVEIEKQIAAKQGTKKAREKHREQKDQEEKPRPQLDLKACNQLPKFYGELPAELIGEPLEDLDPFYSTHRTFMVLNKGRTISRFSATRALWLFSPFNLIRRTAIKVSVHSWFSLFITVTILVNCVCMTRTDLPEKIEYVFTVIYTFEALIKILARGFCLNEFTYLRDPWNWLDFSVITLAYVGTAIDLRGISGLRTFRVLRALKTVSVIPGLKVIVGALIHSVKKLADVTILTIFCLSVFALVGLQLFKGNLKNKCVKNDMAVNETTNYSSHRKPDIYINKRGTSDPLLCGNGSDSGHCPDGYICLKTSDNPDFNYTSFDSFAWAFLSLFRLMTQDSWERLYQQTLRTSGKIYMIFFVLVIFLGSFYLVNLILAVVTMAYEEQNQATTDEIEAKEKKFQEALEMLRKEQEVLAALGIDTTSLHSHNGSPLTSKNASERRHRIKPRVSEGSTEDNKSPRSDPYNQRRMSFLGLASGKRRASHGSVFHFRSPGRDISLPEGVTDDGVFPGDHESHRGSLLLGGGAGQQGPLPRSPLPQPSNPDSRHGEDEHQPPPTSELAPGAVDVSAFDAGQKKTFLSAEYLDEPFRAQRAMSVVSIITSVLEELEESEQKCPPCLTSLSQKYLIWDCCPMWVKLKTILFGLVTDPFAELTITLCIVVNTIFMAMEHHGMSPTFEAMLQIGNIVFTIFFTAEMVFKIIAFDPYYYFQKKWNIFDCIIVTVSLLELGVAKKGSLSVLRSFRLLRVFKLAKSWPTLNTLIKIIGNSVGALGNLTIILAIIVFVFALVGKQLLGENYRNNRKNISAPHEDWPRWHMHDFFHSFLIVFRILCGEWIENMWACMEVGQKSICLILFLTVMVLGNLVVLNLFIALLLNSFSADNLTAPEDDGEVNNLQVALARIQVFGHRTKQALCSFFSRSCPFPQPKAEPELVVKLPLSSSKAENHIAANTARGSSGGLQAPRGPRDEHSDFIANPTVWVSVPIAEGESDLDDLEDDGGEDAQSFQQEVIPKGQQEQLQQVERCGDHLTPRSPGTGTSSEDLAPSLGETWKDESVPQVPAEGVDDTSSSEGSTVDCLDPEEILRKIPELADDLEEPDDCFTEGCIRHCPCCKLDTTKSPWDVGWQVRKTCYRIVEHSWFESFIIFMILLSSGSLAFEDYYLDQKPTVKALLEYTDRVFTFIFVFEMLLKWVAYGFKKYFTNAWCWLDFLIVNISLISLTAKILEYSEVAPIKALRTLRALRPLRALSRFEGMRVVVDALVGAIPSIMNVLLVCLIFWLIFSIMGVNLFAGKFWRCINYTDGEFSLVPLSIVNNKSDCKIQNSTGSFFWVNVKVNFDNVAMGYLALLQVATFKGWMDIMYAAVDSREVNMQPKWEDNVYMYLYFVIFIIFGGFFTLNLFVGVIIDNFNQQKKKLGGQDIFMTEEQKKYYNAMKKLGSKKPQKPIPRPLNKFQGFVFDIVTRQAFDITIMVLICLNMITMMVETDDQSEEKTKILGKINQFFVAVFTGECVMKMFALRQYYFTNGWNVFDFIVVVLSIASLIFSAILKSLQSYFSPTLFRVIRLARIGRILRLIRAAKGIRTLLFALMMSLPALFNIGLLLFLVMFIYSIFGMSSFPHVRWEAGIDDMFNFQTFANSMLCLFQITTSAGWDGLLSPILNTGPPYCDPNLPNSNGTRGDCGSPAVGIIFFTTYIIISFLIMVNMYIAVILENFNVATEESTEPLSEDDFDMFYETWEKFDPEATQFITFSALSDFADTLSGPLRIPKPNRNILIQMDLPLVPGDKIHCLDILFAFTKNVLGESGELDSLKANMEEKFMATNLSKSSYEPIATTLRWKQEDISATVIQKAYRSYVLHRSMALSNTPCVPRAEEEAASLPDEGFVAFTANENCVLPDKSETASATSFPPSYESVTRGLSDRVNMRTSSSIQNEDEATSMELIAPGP

Chain of NaV1.3 (Q9NY46 whole entry, looked up): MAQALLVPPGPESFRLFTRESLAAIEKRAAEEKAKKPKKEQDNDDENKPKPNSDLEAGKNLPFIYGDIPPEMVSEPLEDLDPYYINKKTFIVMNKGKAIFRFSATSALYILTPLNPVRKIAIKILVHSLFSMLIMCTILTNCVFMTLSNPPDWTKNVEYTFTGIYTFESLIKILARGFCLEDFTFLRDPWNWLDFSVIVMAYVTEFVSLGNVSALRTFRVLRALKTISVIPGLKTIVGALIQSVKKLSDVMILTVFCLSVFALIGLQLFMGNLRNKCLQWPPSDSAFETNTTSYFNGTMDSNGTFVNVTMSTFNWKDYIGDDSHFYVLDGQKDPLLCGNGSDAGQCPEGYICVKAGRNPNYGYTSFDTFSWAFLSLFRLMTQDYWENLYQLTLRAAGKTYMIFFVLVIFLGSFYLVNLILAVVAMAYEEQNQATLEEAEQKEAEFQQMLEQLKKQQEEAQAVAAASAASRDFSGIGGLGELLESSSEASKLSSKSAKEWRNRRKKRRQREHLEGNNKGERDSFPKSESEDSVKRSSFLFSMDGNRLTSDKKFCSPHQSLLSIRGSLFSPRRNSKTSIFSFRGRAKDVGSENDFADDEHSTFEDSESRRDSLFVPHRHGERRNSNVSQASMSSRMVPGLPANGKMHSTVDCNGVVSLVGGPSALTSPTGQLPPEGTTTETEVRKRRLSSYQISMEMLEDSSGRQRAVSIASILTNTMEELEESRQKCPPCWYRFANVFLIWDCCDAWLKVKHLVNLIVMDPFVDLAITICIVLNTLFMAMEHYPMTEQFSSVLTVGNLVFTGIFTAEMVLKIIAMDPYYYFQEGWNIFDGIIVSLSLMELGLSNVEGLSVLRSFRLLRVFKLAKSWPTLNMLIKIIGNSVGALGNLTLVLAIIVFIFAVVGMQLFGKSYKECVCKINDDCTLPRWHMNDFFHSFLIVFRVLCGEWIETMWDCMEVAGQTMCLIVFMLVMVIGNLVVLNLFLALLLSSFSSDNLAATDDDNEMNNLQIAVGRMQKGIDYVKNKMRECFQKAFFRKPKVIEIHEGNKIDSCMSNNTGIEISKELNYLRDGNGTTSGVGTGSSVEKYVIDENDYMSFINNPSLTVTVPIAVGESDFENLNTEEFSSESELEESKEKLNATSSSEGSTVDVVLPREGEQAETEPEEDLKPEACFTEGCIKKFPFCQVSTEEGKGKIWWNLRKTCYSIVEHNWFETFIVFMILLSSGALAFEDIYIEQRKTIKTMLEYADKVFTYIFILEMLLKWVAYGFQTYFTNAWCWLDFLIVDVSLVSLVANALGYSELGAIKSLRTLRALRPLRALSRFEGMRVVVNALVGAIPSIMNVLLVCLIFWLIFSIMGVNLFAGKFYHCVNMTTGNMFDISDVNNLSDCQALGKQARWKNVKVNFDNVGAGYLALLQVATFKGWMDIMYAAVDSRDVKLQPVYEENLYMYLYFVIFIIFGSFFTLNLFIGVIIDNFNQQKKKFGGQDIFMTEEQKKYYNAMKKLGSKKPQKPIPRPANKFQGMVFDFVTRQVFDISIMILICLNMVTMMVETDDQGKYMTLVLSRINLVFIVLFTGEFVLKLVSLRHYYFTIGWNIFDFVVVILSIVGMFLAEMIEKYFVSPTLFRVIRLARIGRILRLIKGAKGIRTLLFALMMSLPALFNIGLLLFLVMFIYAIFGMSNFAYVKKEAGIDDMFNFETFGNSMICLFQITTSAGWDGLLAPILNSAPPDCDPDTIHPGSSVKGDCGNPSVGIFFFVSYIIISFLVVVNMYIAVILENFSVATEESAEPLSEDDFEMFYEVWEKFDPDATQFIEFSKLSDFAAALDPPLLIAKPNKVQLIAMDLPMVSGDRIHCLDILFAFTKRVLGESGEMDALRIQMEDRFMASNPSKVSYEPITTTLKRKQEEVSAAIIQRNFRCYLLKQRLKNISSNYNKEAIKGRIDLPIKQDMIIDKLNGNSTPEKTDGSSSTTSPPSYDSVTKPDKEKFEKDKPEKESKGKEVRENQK

Compound	share of patients in which the drug works [1]	IC50 [2]	IC50 [3]
NCC1(CC(=O)O)CCCCC1 [Gabapentin]	60%		
NC1=N[C@H](O)[C@H]2[C@H]3O[C@]4(O)O[C@@H]([C@@H](O)[C@@]2(N1)[C@@H]4O)[C@]3(O)CO [TTX, tetrodotoxin]		15 nM	> 50000 nM
